{"source": "DBAASP", "experiment_in_all_cases": "≥ marks a high value that may be exact or a test limit, other limits are often not marked, values filed in µg/mL are converted to µM", "key": {"Acinetobacter baumannii": {"tested_on": "Acinetobacter baumannii"}, "Aeromonas sobria 090223": {"tested_on": "Aeromonas sobria 090223"}, "[1]": {"tested_on": "Candida albicans ATCC 2002"}, "Candida glabrata 0902": {"tested_on": "Candida glabrata 0902"}, "[2]": {"tested_on": "Enterococcus faecium 1299"}, "Escherichia coli 1342": {"tested_on": "Escherichia coli 1342"}, "[3]": {"tested_on": "Escherichia coli ATCC 25922"}, "Klebsiella pneumoniae": {"tested_on": "Klebsiella pneumoniae"}, "[4]": {"tested_on": "Nocardia asteroides 090312"}, "Proteus mirabilis 090223": {"tested_on": "Proteus mirabilis 090223"}, "[5]": {"tested_on": "Staphylococcus aureus 090223"}, "[6]": {"tested_on": "Staphylococcus aureus 1349"}, "[7]": {"tested_on": "Staphylococcus aureus ATCC 2592"}, "[8]": {"tested_on": "Stenotrophomonas maltophilia 090223"}, "[9]": {"tested_on": "Aspergillus flavus KCTC 7375"}, "[10]": {"tested_on": "Bacillus subtilis KCTC 3068"}, "[11]": {"tested_on": "Candida albicans KCTC 7121"}, "[12]": {"tested_on": "Escherichia coli KCTC 1682"}, "[13]": {"tested_on": "Fusarium oxysporum KCTC 6084"}, "[14]": {"tested_on": "Pseudomonas aeruginosa KCTC 1637"}, "[15]": {"tested_on": "Salmonella typhimurium KCTC 1926"}, "[16]": {"tested_on": "Serratia marcescens KCTC 1299"}, "[17]": {"tested_on": "Staphylococcus aureus KCTC 1621"}, "[18]": {"tested_on": "Streptococcus pyogenes KCTC 3096"}, "[19]": {"tested_on": "Trichosporon beigelii KCTC 7251"}, "[20]": {"tested_on": "Bacillus subtilis ATCC 9372"}, "[21]": {"tested_on": "Escherichia coli ATCC 8739"}, "[22]": {"tested_on": "Proteus vulgaris NCTC 4635"}, "[23]": {"tested_on": "Pseudomonas aeruginosa ATCC 9027"}, "[24]": {"tested_on": "Staphylococcus aureus ATCC 6538"}, "[25]": {"tested_on": "Bacillus subtilis AB91021"}, "[26]": {"tested_on": "Bacillus thuringiensis AB92037"}, "Escherichia coli AB94012": {"tested_on": "Escherichia coli AB94012"}, "[27]": {"tested_on": "Pseudomonas aeruginosa AB93066"}, "[28]": {"tested_on": "Staphylococcus aureus AB94004"}, "Staphylococcus sp.": {"tested_on": "Staphylococcus sp."}, "Candida albicans M9": {"tested_on": "Candida albicans M9"}, "Escherichia coli DC2": {"tested_on": "Escherichia coli DC2"}, "Escherichia coli K-12": {"tested_on": "Escherichia coli K-12"}, "[29]": {"tested_on": "Salmonella enterica serovar Minnesota 1114W"}, "[30]": {"tested_on": "Salmonella enterica serovar Minnesota R595"}, "[31]": {"tested_on": "Salmonella enterica subsp. enterica serovar Typhimurium LT2"}, "[32]": {"tested_on": "Salmonella typhimurium 1102"}, "[33]": {"tested_on": "Staphylococcus aureus 209P"}, "[34]": {"tested_on": "Staphylococcus aureus ATCC 25923"}, "Bacillus anthracis": {"tested_on": "Bacillus anthracis"}, "Bacillus cereus": {"tested_on": "Bacillus cereus"}, "Escherichia coli": {"tested_on": "Escherichia coli"}, "Staphylococcus aureus": {"tested_on": "Staphylococcus aureus"}}, "note": "“And” between values parts separate entries of the source, which are not always exact repeats. Equal values may be shown once."}
{"smiles": "CC[C@H](C)[C@@H]1NC(=O)[C@H](CCSC)NC(=O)[C@@H](NC(=O)[C@H](CC(C)C)NC(=O)[C@H](CC(C)C)NC(=O)[C@H](CO)NC(=O)[C@@H]2CCCN2C(=O)[C@H](CC(C)C)NC(=O)[C@H](CC(C)C)NC(=O)[C@H](CCCCN)NC(=O)[C@@H](NC(=O)[C@@H](NC(=O)[C@H](C)NC(=O)CNC(=O)[C@H](CC(C)C)NC(=O)[C@H](C)NC(=O)[C@@H](N)Cc2ccccc2)C(C)C)[C@@H](C)O)CSSC[C@@H](C(=O)O)NC(=O)[C@H](CCCCN)NC(=O)[C@H](CCCN=C(N)N)NC(=O)[C@H]([C@@H](C)O)NC1=O", "note": "[FALGAVTKLLPSLLCMITRKC]", "values": [{"measurement": "MIC", "setting": "Acinetobacter baumannii", "result": 8.25, "unit": "µM"}, {"measurement": "MIC", "setting": "Aeromonas sobria 090223", "result": 8.25, "unit": "µM"}, {"measurement": "MIC", "setting": "[1]", "result": 1.01, "unit": "µM"}, {"measurement": "MIC", "setting": "Candida glabrata 0902", "result": "≥ 32.9", "unit": "µM"}, {"measurement": "MIC", "setting": "[2]", "result": 2.06, "unit": "µM"}, {"measurement": "MIC", "setting": "Escherichia coli 1342", "result": 4.12, "unit": "µM"}, {"measurement": "MIC", "setting": "[3]", "result": 32.9, "unit": "µM"}, {"measurement": "MIC", "setting": "Klebsiella pneumoniae", "result": 32.9, "unit": "µM"}, {"measurement": "MIC", "setting": "[4]", "result": 8.25, "unit": "µM"}, {"measurement": "MIC", "setting": "Proteus mirabilis 090223", "result": 8.25, "unit": "µM"}, {"measurement": "MIC", "setting": "[5]", "result": 2.06, "unit": "µM"}, {"measurement": "MIC", "setting": "[6]", "result": 16.5, "unit": "µM"}, {"measurement": "MIC", "setting": "[7]", "result": 8.25, "unit": "µM"}, {"measurement": "MIC", "setting": "[8]", "result": 4.12, "unit": "µM"}]}
{"smiles": "CC[C@H](C)[C@H](NC(=O)[C@@H]1CCCN1C(=O)[C@H](CCCCN)NC(=O)[C@H](Cc1ccccc1)NC(=O)[C@H](CC(C)C)NC(=O)[C@H](Cc1cnc[nH]1)NC(=O)[C@H](CC(C)C)NC(=O)[C@H](C)NC(=O)[C@H](CCCCN)NC(=O)[C@H](CCCCN)NC(=O)[C@@H](N)Cc1ccccc1)C(=O)N[C@@H](CCCCN)C(=O)N[C@@H](CCCCN)C(=O)N[C@@H](Cc1ccccc1)C(=O)N[C@@H](CC(C)C)C(=O)N[C@@H](CCCCN)C(=O)N[C@@H](Cc1c[nH]c2ccccc12)C(=O)N[C@@H](CCCCN)C(N)=O", "note": "[FKKALHLFKPIKKFLKWK]", "values": [{"measurement": "MIC", "setting": "[9]", "result": "≥ 50", "unit": "µM"}, {"measurement": "MIC", "setting": "[10]", "result": 0.78, "unit": "µM"}, {"measurement": "MIC", "setting": "[11]", "result": "≥ 50", "unit": "µM"}, {"measurement": "MIC", "setting": "[12]", "result": 6.25, "unit": "µM"}, {"measurement": "MIC", "setting": "[13]", "result": "≥ 50", "unit": "µM"}, {"measurement": "MIC", "setting": "[14]", "result": 1.56, "unit": "µM"}, {"measurement": "MIC", "setting": "[15]", "result": 3.13, "unit": "µM"}, {"measurement": "MIC", "setting": "[16]", "result": 6.25, "unit": "µM"}, {"measurement": "MIC", "setting": "[17]", "result": 1.56, "unit": "µM"}, {"measurement": "MIC", "setting": "[18]", "result": 6.25, "unit": "µM"}, {"measurement": "MIC", "setting": "[19]", "result": 25, "unit": "µM"}]}
{"smiles": "CC[C@H](C)[C@H](NC(=O)[C@@H](NC(=O)[C@H](CO)NC(=O)[C@H](C)NC(=O)[C@@H](NC(=O)[C@H](CCCCN)NC(=O)[C@H](CCCCN)NC(=O)[C@@H](NC(=O)[C@@H](NC(=O)[C@H](C)NC(=O)[C@H](Cc1ccccc1)NC(=O)[C@H](CC(C)C)NC(=O)CN)C(C)C)[C@@H](C)CC)C(C)C)C(C)C)C(=O)NCC(=O)O", "note": "[GLFAVIKKVASVIG]", "values": [{"measurement": "MIC", "setting": "[20]", "result": 5.71, "unit": "µM"}, {"measurement": "MIC", "setting": "[21]", "result": "≥ 45.7", "unit": "µM"}, {"measurement": "MIC", "setting": "[22]", "result": "≥ 183", "unit": "µM"}, {"measurement": "MIC", "setting": "[23]", "result": 183, "unit": "µM"}, {"measurement": "MIC", "setting": "[24]", "result": 22.8, "unit": "µM"}]}
{"smiles": "CC[C@H](C)[C@H](NC(=O)[C@H](CC(C)C)NC(=O)[C@H](CO)NC(=O)[C@@H]1CCCN1C(=O)[C@@H](NC(=O)[C@H](CC(C)C)NC(=O)CNC(=O)[C@H](Cc1ccccc1)NC(=O)[C@@H](N)CC(C)C)[C@@H](C)CC)C(=O)NCC(=O)NCC(=O)N[C@@H](CC(C)C)C(=O)N[C@H](C(=O)N[C@@H](CO)C(=O)N[C@@H](C)C(=O)N[C@@H](Cc1ccccc1)C(=O)N[C@@H](CCCCN)C(N)=O)C(C)C", "note": "[LFGLIPSLIGGLVSAFK]", "values": [{"measurement": "MIC", "setting": "[25]", "result": 28.9, "unit": "µM"}, {"measurement": "MIC", "setting": "[26]", "result": 14.4, "unit": "µM"}, {"measurement": "MIC", "setting": "Escherichia coli AB94012", "result": "≥ 57.7", "unit": "µM"}, {"measurement": "MIC", "setting": "[27]", "result": "≥ 57.7", "unit": "µM"}, {"measurement": "MIC", "setting": "[28]", "result": 14.4, "unit": "µM"}, {"measurement": "MIC", "setting": "Staphylococcus sp.", "result": 14.4, "unit": "µM"}]}
{"smiles": "CC[C@H](C)[C@@H]1NC(=O)CNC(=O)[C@H](CCCN=C(N)N)NC(=O)[C@H](Cc2ccc(O)cc2)NC(=O)[C@@H]2CSSC[C@H](NC1=O)C(=O)N[C@@H](Cc1ccc(O)cc1)C(=O)N[C@@H](CCCN=C(N)N)C(=O)N[C@@H](CCCCN)C(=O)N[C@H](C(=O)N[C@@H](CCCN=C(N)N)C(N)=O)CSSC[C@H](NC(=O)[C@H](Cc1c[nH]c3ccccc13)NC(=O)[C@@H](N)CCCN=C(N)N)C(=O)N[C@@H](Cc1ccccc1)C(=O)N[C@@H](CCCN=C(N)N)C(=O)N[C@@H](C(C)C)C(=O)N2", "note": "[RWCFRVCYRGICYRKCR]", "values": [{"measurement": "MIC", "setting": "Candida albicans M9", "result": 1.37, "unit": "µM"}, {"measurement": "MIC", "setting": "[3]", "result": 0.25, "unit": "µM"}, {"measurement": "MIC", "setting": "Escherichia coli DC2", "result": 0.707, "unit": "µM"}, {"measurement": "MIC", "setting": "Escherichia coli K-12", "result": 0.982, "unit": "µM"}, {"measurement": "MIC", "setting": "[29]", "result": 2.78, "unit": "µM"}, {"measurement": "MIC", "setting": "[30]", "result": 0.705, "unit": "µM"}, {"measurement": "MIC", "setting": "[31]", "result": 0.982, "unit": "µM"}, {"measurement": "MIC", "setting": "[32]", "result": 0.982, "unit": "µM"}, {"measurement": "MIC", "setting": "[33]", "result": 2.78, "unit": "µM"}, {"measurement": "MIC", "setting": "[34]", "result": "5.51 µM and 2 µM"}, {"measurement": "MIC", "setting": "[24]", "result": 5.66, "unit": "µM"}]}
{"smiles": "CC[C@H](C)[C@H](NC(=O)[C@H](Cc1cnc[nH]1)NC(=O)[C@@H](N)[C@@H](C)O)C(=O)N[C@@H](Cc1cnc[nH]1)C(=O)N[C@@H](CCSC)C(=O)N[C@@H](CC(N)=O)C(=O)N[C@@H](C)C(=O)N[C@@H](CCCN=C(N)N)C(=O)N[C@@H](CC(C)C)C(=O)N[C@@H](CC(C)C)C(=O)N[C@H](C(=O)N[C@@H](CCCN=C(N)N)C(=O)N[C@@H](CO)C(=O)N1CCC[C@H]1C(=O)N[C@@H](Cc1ccccc1)C(=O)N[C@H](C(=O)N[C@@H](CC(=O)O)C(=O)N1CCC[C@H]1C(=O)N[C@@H](CCC(N)=O)C(=O)N[C@@H](CC(C)C)C(=O)O)[C@@H](C)O)[C@@H](C)CC", "note": "[THIHMNARLLIRSPFTDPQL]", "values": [{"measurement": "MIC", "setting": "Bacillus anthracis", "result": "≥ 108", "unit": "µM"}, {"measurement": "MIC", "setting": "Bacillus cereus", "result": "≥ 108", "unit": "µM"}, {"measurement": "MIC", "setting": "Escherichia coli", "result": "> 108", "unit": "µM"}, {"measurement": "MIC", "setting": "Staphylococcus aureus", "result": "> 108", "unit": "µM"}]}
